Values after ≈ are worked out from the molar mass of the structure shown. Marks after values point to notes of the source that are not given here.
Legend:
APEC O1 = format: cell-based, avian pathogenic Escherichia coli (APEC); settings: APEC O1, M63 media; MIC/MBC
APEC O1-63 = format: cell-based, avian pathogenic Escherichia coli (APEC); settings: APEC O1-63, M63 media; MIC/MBC
Rif^r APEC O78 [1] = assay: In vivo efficacy of growth inhibitors in APEC infected broiler chickens
[2] = test system: biofilm embedded APEC O78; assay: MBEC High-throughput assay; format: cell-based, avian pathogenic Escherichia coli (APEC); settings: biofilm embedded APEC O78; superscript = multiple of MIC (footnote)
Procedure: Effect against biofilm embedded APEC. The effect of cidal SMs against biofilm embedded APEC was determined using MBEC High-throughput (HTP) assay (Innovotech Inc., AB, Canada). Briefly, 150 µL of 0.05 OD600 adjusted APEC O78 culture was aliquoted into each well of the MBEC device containing polystyrene pegs and incubated at 37° C. for 36 h in LB media under stationary condition. […] The plate was incubated in the dark for 18 h at 37° C. with rotation at 110 rpm. The DMSO (1%) and M63 media were used as positive and negative controls, respectively. Following incubation, MIC of SMs in challenged plate was recorded. The SMs exposed pegs were then transferred to a new 96-well plate containing PBS and sonicated for 30 mins (Aquasonic ultrasonic cleaner, VWR) to disrupt the biofilm. […] Biofilm embedded APEC bacteria were enumerated and minimum biofilm eradication concentration (MBEC) of […] were determined. Two independent experiments were conducted.

[3] = test system: intracellular APEC O78 in THP-1 cells; assay: Intracellular survival assay (cidal SMs); settings: O78, THP-1, 6 h treatment; superscript = multiple of MIC
APEC O78 [4] = assay: Loss of 260/280 nm absorbing materials assay; format: cell-based, avian pathogenic Escherichia coli (APEC); settings: 2X MBC, 1 h, *P<0.05 vs DMSO
APEC O2 = format: cell-based, avian pathogenic Escherichia coli (APEC); settings: APEC O2, M63 media; MIC/MBC
APEC O78 [5] = assay: Confocal microscopy bacterial cytological profiling; format: cell-based, avian pathogenic Escherichia coli (APEC); settings: 2X MBC
Procedure: Confocal and scanning electron microscopy. Confocal microscopy was used for bacterial cytological profiling (BCP) to identify the cellular pathways targeted by SMs as described previously. […] After incubation, treated cultures were centrifuged, washed, and resuspended in 100 μL PBS. […] Cultures were then centrifuged, washed, and resuspended in PBS to 1⁄10th volume of the original cultures.

[6] = test system: intracellular APEC O2 in THP-1 cells; assay: Intracellular survival assay (cidal SMs); settings: O2, THP-1, 6 h treatment; superscript = multiple of MIC
APEC O2-211 = format: cell-based, avian pathogenic Escherichia coli (APEC); settings: APEC O2-211, M63 media; MIC/MBC
APEC O15 = format: cell-based, avian pathogenic Escherichia coli (APEC); settings: APEC O15, M63 media; MIC/MBC
[7] = test system: intracellular APEC O2 in HD11 cells; assay: Intracellular survival assay (cidal SMs); settings: O2, HD11, 6 h treatment; superscript = multiple of MIC
APEC O115 = format: cell-based, avian pathogenic Escherichia coli (APEC); settings: APEC O115, M63 media; MIC/MBC
APEC O78-53 = format: cell-based, avian pathogenic Escherichia coli (APEC); settings: APEC O78-53, M63 media; MIC/MBC
[8] = test system: intracellular APEC O78 in Caco-2 cells; assay: Intracellular survival assay (cidal SMs); settings: O78, Caco-2, 6 h treatment; superscript = multiple of MIC
APEC O18 = format: cell-based, avian pathogenic Escherichia coli (APEC); settings: APEC O18, M63 media; MIC/MBC
[9] = test system: intracellular APEC O1 in Caco-2 cells; assay: Intracellular survival assay (cidal SMs); settings: O1, Caco-2, 6 h treatment; superscript = multiple of MIC
APEC O78 [10] = format: cell-based, avian pathogenic Escherichia coli (APEC)
[11] = test system: intracellular APEC O78 in HD11 cells; assay: Intracellular survival assay (cidal SMs); settings: O78, HD11, 6 h treatment; superscript = multiple of MIC
APEC O8 = format: cell-based, avian pathogenic Escherichia coli (APEC); settings: APEC O8, M63 media; MIC/MBC
APEC O109 = format: cell-based, avian pathogenic Escherichia coli (APEC); settings: APEC O109, M63 media; MIC/MBC
APEC O35 = format: cell-based, avian pathogenic Escherichia coli (APEC); settings: APEC O35, M63 media; MIC/MBC
[12] = test system: intracellular APEC O2 in Caco-2 cells; assay: Intracellular survival assay (cidal SMs); settings: O2, Caco-2, 6 h treatment; superscript = multiple of MIC
[13] = test system: intracellular APEC O1 in HD11 cells; assay: Intracellular survival assay (cidal SMs); settings: O1, HD11, 6 h treatment; superscript = multiple of MIC
[14] = test system: intracellular APEC O1 in THP-1 cells; assay: Intracellular survival assay (cidal SMs); settings: O1, THP-1, 6 h treatment; superscript = multiple of MIC
[15] = test system: AI-2 activity of APEC O15; assay: AI-2 bioluminescence indicator assay (V. harveyi BB170); settings: APEC O15, 100 µM
Rif^r APEC O78 [16] = assay: Wax moth (Galleria mellonella) larva infection model (AI-2 inhibitors)
[17] = test system: AI-2 activity of APEC O109; assay: AI-2 bioluminescence indicator assay (V. harveyi BB170); settings: APEC O109, 100 µM
[18] = test system: AI-2 activity of APEC O18; assay: as above; settings: APEC O18, 100 µM
AI-2 activity of APEC O8 = assay: as above; settings: APEC O8, 100 µM
AI-2 activity of APEC O2 = assay: as above; settings: APEC O2, 100 µM
[19] = test system: AI-2 activity of APEC O35; assay: as above; settings: APEC O35, 100 µM
[20] = test system: AI-2 activity of APEC O78; assay: as above; settings: APEC O78, 100 µM
AI-2 activity of APEC O1 = assay: as above; settings: APEC O1, 100 µM
Rif^r APEC O78 [21] = assay: In vivo screening of quorum sensing inhibitors in APEC infected broiler chickens
[22] = test system: AI-2 activity of APEC O115; assay: AI-2 bioluminescence indicator assay (V. harveyi BB170); settings: APEC O115, 100 µM

Compound: COc1cc(CNCCc2ccc(C)cc2)ccc1OCC(O)CN1CCCC1 (centres unmarked) [SM3]
- MBC (APEC O1): 200 µM (≈ 79.7 µg/mL)
- MIC (APEC O1): 100 µM (≈ 39.9 µg/mL)
- MBC (APEC O1-63): 200 µM (≈ 79.7 µg/mL)
- MIC (APEC O1-63): 200 µM (≈ 79.7 µg/mL)
- reduction of average APEC load in internal organs (Rif^r APEC O78 [1]; average of liver, heart, lung and kidney, vs untreated control): either exacerbated or did not reduce
- reduction of APEC lesions severity (%), Air-sacs (airsacculitis) (Rif^r APEC O78 [1]; untreated control = 100%): -29.4%
- reduction of APEC lesions severity (%), Heart (pericarditis) (Rif^r APEC O78 [1]; untreated control = 100%): 4%
- reduction of APEC lesions severity (%), Liver (perihepatitis) (Rif^r APEC O78 [1]; untreated control = 100%): -20%
- reduction of APEC lesions severity (%), Lung (lung congestion) (Rif^r APEC O78 [1]; untreated control = 100%): 0%
- reduction of APEC load, Heart (Rif^r APEC O78 [1]; vs untreated control): -2.1 log CFU/g of tissues
- reduction of APEC load, Kidney (Rif^r APEC O78 [1]; vs untreated control): -1.4 log CFU/g of tissues
- reduction of APEC load, Liver (Rif^r APEC O78 [1]; vs untreated control): -1.8 log CFU/g of tissues
- reduction of APEC load, Lung (Rif^r APEC O78 [1]; vs untreated control): -2.0 log CFU/g of tissues
- Body weight gain (BWG) (Rif^r APEC O78 [1]; weight of live chickens before necropsy minus weight before treatment): 254.58±95.03
- MBEC [2]: 50^b µM
- SMs intracellular APEC clearance concentration [3]: 100^a µM
- Absorbance 260 (APEC O78 [4]; 260 nm absorbing material in supernatant): 3.77
- Absorbance 280 (APEC O78 [4]; 280 nm absorbing material in supernatant): 2.84*
- MBC (APEC O2): 200 µM (≈ 79.7 µg/mL)
- MIC (APEC O2): 100 µM (≈ 39.9 µg/mL)
- cytological profile (confocal, FM4-64 / SYTO-9) (APEC O78 [5]): membrane pore formers
- SMs intracellular APEC clearance concentration [6]: 100^a µM
- MBC (APEC O2-211): 100 µM (≈ 39.9 µg/mL)
- MIC (APEC O2-211): 100 µM (≈ 39.9 µg/mL)
- MBC (APEC O15): 100 µM (≈ 39.9 µg/mL)
- MIC (APEC O15): 100 µM (≈ 39.9 µg/mL)
- SMs intracellular APEC clearance concentration [7]: 200^b µM
- MBC (APEC O115): 100 µM (≈ 39.9 µg/mL)
- MIC (APEC O115): 100 µM (≈ 39.9 µg/mL)
- MBC (APEC O78-53): 200 µM (≈ 79.7 µg/mL)
- MIC (APEC O78-53): 100 µM (≈ 39.9 µg/mL)
- SMs intracellular APEC clearance concentration [8]: 100^a µM
- MBC (APEC O18): 100 µM (≈ 39.9 µg/mL)
- MIC (APEC O18): 100 µM (≈ 39.9 µg/mL)
- SMs intracellular APEC clearance concentration [9]: >200 µM
- MBC relative to MIC (APEC O78 [10]; APEC O78): identical to MIC
- MIC (APEC O78 [10]; APEC O78, M63 media, MIC/MBC): 100 µM (≈ 39.9 µg/mL)
- MBC (APEC O78 [10]; APEC O78, M63 media, cell prints MIC/MBC): 100 µM (≈ 39.9 µg/mL)
- SMs intracellular APEC clearance concentration [11]: 100^a µM
- MBC (APEC O8): 100 µM (≈ 39.9 µg/mL)
- MIC (APEC O8): 100 µM (≈ 39.9 µg/mL)
- MBC (APEC O109): 200 µM (≈ 79.7 µg/mL)
- MIC (APEC O109): 100 µM (≈ 39.9 µg/mL)
- MBC (APEC O35): 200 µM (≈ 79.7 µg/mL)
- MIC (APEC O35): 100 µM (≈ 39.9 µg/mL)
- SMs intracellular APEC clearance concentration [12]: >200 µM
- SMs intracellular APEC clearance concentration [13]: 200^b µM
- SMs intracellular APEC clearance concentration [14]: 200^b µM

Compound: Cc1ccccc1N1CCN(C2CCCN(C(=O)c3ccc(F)c(Cl)c3)C2)CC1 (centres unmarked) [C2, 1-[1-{3-chloro-4-fluorbenzoyl)-3-piperdinyl]-4-(2-methylphenyl)piperazine]
- Inhibition % of AI-2 activity [15]: 27%
- larval death (Rif^r APEC O78 [16]; 48 h post treatment): no larval death
- clearance of APEC in live larvae (Rif^r APEC O78 [16]; 72 h): 100%
- Inhibition % of AI-2 activity [17]: 57%
- Inhibition % of AI-2 activity [18]: 43%
- Inhibition % of AI-2 activity (AI-2 activity of APEC O8): 20%
- Inhibition % of AI-2 activity (AI-2 activity of APEC O2): 96%
- Inhibition % of AI-2 activity [19]: 55%
- Inhibition % of AI-2 activity [20]: 92%
- Inhibition % of AI-2 activity (AI-2 activity of APEC O1): 64%
- reduction in chicken mortality (Rif^r APEC O78 [21]; DMSO control mortality normalized to 100%): 50%
- Mortality rate (%) (Rif^r APEC O78 [21]; oral gavage once a day, day 4 to day 8, DMSO control 66.7%): 33.3%
- Reduction in APEC lesions severity, Air-sacs (%) (Rif^r APEC O78 [21]; vs DMSO treated control): 63.3%
- Reduction in APEC lesions severity, Heart (%) (Rif^r APEC O78 [21]; vs DMSO treated control): 37.5%
- Reduction in APEC lesions severity, Liver (%) (Rif^r APEC O78 [21]; vs DMSO treated control): 45.5%
- Reduction in APEC lesions severity, Lung (%) (Rif^r APEC O78 [21]; vs DMSO treated control): 88.9%
- Inhibition % of AI-2 activity [22]: 52%

— US20230355597A1, “COMPOUNDS, COMPOSITIONS, AND METHODS FOR THE TREATMENT AND PREVENTION OF AVIAN PATHOGENIC E. COLI (APEC)” (OHIO STATE INNOVATION FOUNDATION, priority 2018, published 2023)
